Source: PubChem BioAssay (NCI)
“And” between values parts separate entries of the source, which are not always exact repeats. Equal values may be shown once.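 Dose response: 5 concentrations. Exposure: 48 h. Format: 96-well plates. Endpoint: linear interpolation; highest concentration if not reached. Here, GI50 denotes the concentration required for 50% inhibition of growth. At the TGI there is no net growth.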

Columns and labels:
Assay in all cases: growth of human tumour cells (NCI), 48 h
DLD-1 colon = system: DLD-1 colon
DMS 114 small cell lung = system: DMS 114 small cell lung
HOP-18 NSCLC = system: HOP-18 NSCLC
KM20L2 colon = system: KM20L2 colon
SNB-78 CNS = system: SNB-78 CNS
BT-549 breast = system: BT-549 breast
HS 578T breast = system: HS 578T breast
MDA-MB-231 breast = system: MDA-MB-231 breast
MDA-MB-435 = system: MDA-MB-435
T-47D breast = system: T-47D breast

COc1ccccc1OCC(COC(=O)Nc1ccc(C)cc1)OC(=O)Nc1ccc(C)cc1 (stereo not drawn)
TGI (DLD-1 colon): 31.8 µM
TGI (DMS 114 small cell lung): 29.3 µM
TGI (HOP-18 NSCLC): 40.3 µM
TGI (KM20L2 colon): 50 µM
TGI (SNB-78 CNS): 91.6 µM

OCC1CC2CC1C1(C2)OCCO1 (stereo not drawn)
TGI (DLD-1 colon): > 100 µM
TGI (DMS 114 small cell lung): > 100 µM
TGI (HOP-18 NSCLC): > 100 µM
TGI (KM20L2 colon): > 100 µM
TGI (SNB-78 CNS): > 100 µM

C=C1C(=O)C23C(CC(OC(C)=O)C1[C@@H]2OC(C)=O)C1(C)C(OC(C)=O)CCC(C)(C)C1C[C@@H]3OC(C)=O (stereo partly drawn)
TGI (DMS 114 small cell lung): 2.4 µM
TGI (SNB-78 CNS): 3.14 µM

O=C(O)c1oc2ccc([N+](=O)[O-])c3c2c1CCC3
TGI (DLD-1 colon): > 100 µM
TGI (DMS 114 small cell lung): > 100 µM
TGI (HOP-18 NSCLC): > 100 µM
TGI (KM20L2 colon): > 100 µM
TGI (SNB-78 CNS): > 100 µM

C[P+](C)(CC(F)(F)F)c1ccccc1
TGI (DLD-1 colon): > 100 µM
TGI (DMS 114 small cell lung): > 100 µM
TGI (HOP-18 NSCLC): > 100 µM
TGI (KM20L2 colon): > 100 µM
TGI (SNB-78 CNS): > 100 µM

C[Si](C)(C)[C@@]1([Se]c2ccccc2)CC[C@@H]1C(=O)c1ccccc1
TGI (DLD-1 colon): > 100 µM
TGI (DMS 114 small cell lung): > 100 µM
TGI (KM20L2 colon): > 100 µM
TGI (SNB-78 CNS): > 100 µM

ClCc1ccc(Cn2cnc3ncnc(Cl)c32)cc1
GI50 (BT-549 breast): 3.75 µM
TGI (BT-549 breast): 16.9 µM
GI50 (HS 578T breast): 1740 nM
TGI (HS 578T breast): 4.3 µM
GI50 (MDA-MB-231 breast): 1.76 µM
TGI (MDA-MB-231 breast): 3.35 µM
GI50 (MDA-MB-435): 5.82 µM
TGI (MDA-MB-435): 19.2 µM
GI50 (T-47D breast): 1.29 µM
TGI (T-47D breast): 2.86 µM

CC(C)(C)c1ccc(C(O)(c2ccc(C(C)(C)C)cc2)c2ccc(C(C)(C)C)cc2)cc1
TGI (BT-549 breast): > 100 µM
TGI (HS 578T breast): > 100 µM
TGI (MDA-MB-231 breast): > 100 µM
TGI (MDA-MB-435): > 100 µM
TGI (T-47D breast): > 100 µM

COc1ccc(-c2nc(N)nc(-c3cc(C)ccc3O)c2Cl)cc1
TGI (DLD-1 colon): > 100 µM
TGI (DMS 114 small cell lung): > 100 µM
TGI (HOP-18 NSCLC): > 100 µM
TGI (KM20L2 colon): > 100 µM
TGI (SNB-78 CNS): 81.9 µM

COc1ccc2c(c1)[n+]([O-])c(-c1ccc(Cl)c(Cl)c1)c(N)[n+]2[O-]
TGI (DLD-1 colon): > 100 µM
TGI (DMS 114 small cell lung): 32.1 µM
TGI (HOP-18 NSCLC): > 100 µM
TGI (KM20L2 colon): > 100 µM
TGI (SNB-78 CNS): > 100 µM

Cc1nc(Nc2ccc([N+](=O)[O-])cc2)sc1C(=O)/C=C/c1ccc(N(C)C)cc1
TGI (DLD-1 colon): > 100 µM
TGI (DMS 114 small cell lung): > 100 µM
TGI (HOP-18 NSCLC): > 100 µM
TGI (KM20L2 colon): > 100 µM

O=C(O)CNS(=O)(=O)c1ccc(NC(=O)c2cccc([N+](=O)[O-])c2)cc1
TGI (DLD-1 colon): > 100 µM
TGI (HOP-18 NSCLC): > 100 µM
TGI (KM20L2 colon): > 100 µM

Cc1ccc(S(=O)(=O)ON=C2CC(c3ccccc3)N(C)C(c3ccccc3)C2)cc1 (stereo not drawn)
TGI (DMS 114 small cell lung): 29.9 µM
TGI (KM20L2 colon): 53.6 µM and 45.9 µM
TGI (SNB-78 CNS): 64.7 µM and 52.8 µM

C/C(=N\NC(=S)Nc1ccc([N+](=O)[O-])cc1S(=O)(=O)O)c1ccccn1
TGI (DLD-1 colon): > 100 µM
TGI (DMS 114 small cell lung): > 100 µM
TGI (HOP-18 NSCLC): > 100 µM
TGI (KM20L2 colon): 67.2 µM
TGI (SNB-78 CNS): > 100 µM

CN(C)/C(=N/C(=O)Nc1ccccc1)SCc1ccccc1
TGI (DLD-1 colon): > 100 µM
TGI (DMS 114 small cell lung): > 100 µM
TGI (HOP-18 NSCLC): > 100 µM
TGI (SNB-78 CNS): > 100 µM

N#CCc1nc2c(s1)C(=O)c1ccccc1C2=O
TGI (DMS 114 small cell lung): 20.1 µM
TGI (HOP-18 NSCLC): 28.3 µM
TGI (KM20L2 colon): > 100 µM
TGI (SNB-78 CNS): 47.7 µM

O=C(O)C1C2CC3CC2CC31 (stereo not drawn)
TGI (DMS 114 small cell lung): > 100 µM
TGI (SNB-78 CNS): > 100 µM

CCOc1ccc(N2C(N)=NC(N)=NC2(C)C)cc1
GI50 (BT-549 breast): 84.3 µM
TGI (BT-549 breast): > 100 µM
GI50 (HS 578T breast): > 100000 nM
TGI (HS 578T breast): > 100 µM
GI50 (MDA-MB-231 breast): > 100 µM
TGI (MDA-MB-231 breast): > 100 µM
GI50 (MDA-MB-435): 38.8 µM
TGI (MDA-MB-435): > 100 µM
GI50 (T-47D breast): > 100 µM
TGI (T-47D breast): > 100 µM

COc1cc(C(N)=O)c(OC)c(OC)c1OC
TGI (DLD-1 colon): > 100 µM
TGI (DMS 114 small cell lung): > 100 µM
TGI (KM20L2 colon): > 100 µM
TGI (SNB-78 CNS): > 100 µM

O=C1CCCc2c(O)ccc(O)c21
TGI (DLD-1 colon): > 100 µM
TGI (DMS 114 small cell lung): 74.9 µM
TGI (HOP-18 NSCLC): > 100 µM
TGI (KM20L2 colon): > 100 µM
TGI (SNB-78 CNS): > 100 µM

O=C1C=Cc2noc3cccc1c23
TGI (DLD-1 colon): 3.13 µM
TGI (DMS 114 small cell lung): 4.99 µM
TGI (HOP-18 NSCLC): 33.6 µM
TGI (KM20L2 colon): 34 µM
TGI (SNB-78 CNS): 12 µM

Cc1[nH]nc(C(=O)N/N=C/c2cccs2)c1N=NN(C)C
TGI (BT-549 breast): 27.3 µM
TGI (HS 578T breast): > 100 µM
TGI (MDA-MB-231 breast): 66.6 µM
TGI (MDA-MB-435): 57 µM
TGI (T-47D breast): 41.3 µM

Cc1ccc(Nc2ccnc(Nc3cccc(C(N)=O)c3)n2)cc1O
GI50 (BT-549 breast): 6.4 µM
TGI (BT-549 breast): > 25 µM
GI50 (HS 578T breast): 742 nM
TGI (HS 578T breast): 8.98 µM
GI50 (MDA-MB-231 breast): 4.27 µM
TGI (MDA-MB-231 breast): > 25 µM
GI50 (MDA-MB-435): 7.98 µM
TGI (MDA-MB-435): > 25 µM
GI50 (T-47D breast): 4.74 µM
TGI (T-47D breast): > 21.2 µM

CC(C)=CCC[C@](C)(O)[C@H]1CC[C@]2(C)[C@@H]1CC[C@@H]1[C@@]3(C)CC[C@H](OC(=O)CCC(=O)O)C(C)(C)[C@@H]3CC[C@]12C
GI50 (BT-549 breast): > 100 µM
TGI (BT-549 breast): > 100 µM
GI50 (HS 578T breast): 45800 nM
TGI (HS 578T breast): > 100 µM
GI50 (MDA-MB-231 breast): 30.1 µM
TGI (MDA-MB-231 breast): 87.5 µM
GI50 (MDA-MB-435): 29.3 µM
TGI (MDA-MB-435): > 100 µM
GI50 (T-47D breast): 19.4 µM
TGI (T-47D breast): > 100 µM

COCCOC(=O)CCn1cc(F)c(=O)[nH]c1=O
GI50 (BT-549 breast): 16.2 µg/mL
TGI (BT-549 breast): > 150 µg/mL
GI50 (HS 578T breast): > 150 µg/mL
TGI (HS 578T breast): > 150 µg/mL
GI50 (MDA-MB-231 breast): > 150 µg/mL
TGI (MDA-MB-231 breast): > 150 µg/mL
GI50 (MDA-MB-435): 5.67 µg/mL
TGI (MDA-MB-435): > 150 µg/mL
GI50 (T-47D breast): 73.4 µg/mL
TGI (T-47D breast): > 150 µg/mL

COc1cc(C=NCC(=O)CSC(c2ccccc2)c2ccccc2)cc(OC)c1OC
GI50 (BT-549 breast): 26.5 µM
TGI (BT-549 breast): 93.9 µM
GI50 (HS 578T breast): 19000 nM
TGI (HS 578T breast): 59.4 µM
GI50 (MDA-MB-231 breast): 18.1 µM
TGI (MDA-MB-231 breast): > 100 µM
GI50 (MDA-MB-435): 25.1 µM
TGI (MDA-MB-435): 80.2 µM
GI50 (T-47D breast): 4.48 µM
TGI (T-47D breast): 53.7 µM

CC(Cl)CC(=O)Nc1ccc2c(c1)oc(=O)c1cc(NC(=O)CC(C)Cl)ccc12 (stereo not drawn)
GI50 (BT-549 breast): 22.1 µM
TGI (BT-549 breast): 53.3 µM
GI50 (HS 578T breast): 2360 nM
TGI (HS 578T breast): 22.6 µM
GI50 (MDA-MB-231 breast): 1.98 µM
TGI (MDA-MB-231 breast): 23.7 µM
GI50 (MDA-MB-435): 18.3 µM
TGI (MDA-MB-435): > 100 µM
GI50 (T-47D breast): 16.2 µM
TGI (T-47D breast): > 100 µM

O=C1CCC(c2ccccc2)(c2ccccc2)CC1
TGI (BT-549 breast): > 100 µM
TGI (HS 578T breast): > 100 µM
TGI (MDA-MB-231 breast): > 100 µM
TGI (MDA-MB-435): > 100 µM
TGI (T-47D breast): > 100 µM

CCNC1=CC(=O)c2ncccc2C1=O
GI50 (BT-549 breast): 1.54 µM
TGI (BT-549 breast): 3.15 µM
GI50 (HS 578T breast): 1690 nM
TGI (HS 578T breast): 6.27 µM
GI50 (MDA-MB-231 breast): 2.66 µM
TGI (MDA-MB-231 breast): 21.1 µM
GI50 (MDA-MB-435): 0.4 µM
TGI (MDA-MB-435): 1.5 µM
GI50 (T-47D breast): 4.45 µM
TGI (T-47D breast): 23.1 µM

O=[N+]([O-])C(=C(c1ccccc1)c1ccccc1)[N+](=O)[O-]
TGI (DLD-1 colon): 19.8 µM
TGI (DMS 114 small cell lung): 43.2 µM
TGI (KM20L2 colon): 32.1 µM

Clc1cccc(C2SCc3nc4ccccc4n32)c1Cl (stereo not drawn)
TGI (DLD-1 colon): 32.4 µM
TGI (DMS 114 small cell lung): 36.4 µM
TGI (HOP-18 NSCLC): 33.1 µM
TGI (KM20L2 colon): 34.7 µM
TGI (SNB-78 CNS): 55.6 µM
